Values after ≈ are worked out from the molar mass of the structure shown. Where two headings read alike, the source gives them in different places. Where a SMILES comes first, the peptide text is derived from it. [ ]: non-standard residue; d: D form.
How the values were obtained:
[1] = test system: MDRAB 12036; type: cell-based, Acinetobacter baumannii
Summary of the method: (§1)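 MIC read-out = lowest peptide level with no bacterial proliferation. Strains diluted in MH medium to 2×10^6 CFU; peptide twofold serial dilutions in MH added 1:1 in microtiter wells.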

[2] = test system: MDRST 8009; type: cell-based, Salmonella typhimurium; conditions: agent alone
Summary of the method: as §1

[3] = test system: A. baumannii; assay: microbe, parasite or virus in culture; type: cell-based, Acinetobacter baumannii; conditions: for Antibacterial activity relative to PapMA-1: A. baumannii and S. typhimurium
Summary of the method: as §1

[4] = test system: MDRAB 12035; assay: microbe, parasite or virus in culture; type: cell-based, Acinetobacter baumannii
Summary of the method: as §1

[5] = test system: MDREC 1229; type: cell-based, Escherichia coli
Summary of the method: (§2)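 Strains in MH medium at 2×10^6 CFU/ml were mixed with peptide diluted stepwise (2:1) from its MIC, then antibiotic dilutions in MH medium were added to give the antibiotic MIC. The reversed set-up, peptide titrated against fixed antibiotic, gave the peptide MIC.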

[6] = test system: E. coli; type: cell-based, Escherichia coli; conditions: E. coli
Summary of the method: as §2

[7] = test system: S. typhimurium; assay: microbe, parasite or virus in culture; type: cell-based, Salmonella typhimurium
Summary of the method: as §1

[8] = test system: multi-drug resistant bacteria; assay: MIC, summary statements for multi-drug resistant bacteria; type: cell-based
Summary of the method: as §1

[9] = test system: A. baumannii; assay: MIC of antimicrobial peptide during combined treatment with antibiotic; type: cell-based, Acinetobacter baumannii
Summary of the method: as §2

[10] = test system: MDRAB 12035; assay: as above; type: cell-based, Acinetobacter baumannii
Summary of the method: as §2

[11] = erythromycin 32 μg/ml (Conc./MIC 1/8)
[12] = erythromycin 64 μg/ml (Conc./MIC 1/4)
[13] = erythromycin […] (Conc./MIC 1/2)
[14] = linezolid 64 μg/ml (Conc./MIC 1/8)
[15] = linezolid 512 μg/ml (Conc./MIC 1)
[16] = vancomycin 512 μg/ml (Conc./MIC 1/2)
[17] = vancomycin 1024 μg/ml (Conc./MIC 1)
[18] = with Erythromycin […] (Conc./MIC 1)
[19] = with Linezolid […] (Conc./MIC 1)
[20] = with Vancomycin 1024 μg/ml (Conc./MIC 1)
[21] = erythromycin 4 μg/ml (Conc./MIC 1/8)
[22] = erythromycin 8 μg/ml (Conc./MIC 1/4)
[23] = erythromycin 16 μg/ml (Conc./MIC 1/2)
[24] = erythromycin 32 μg/ml (Conc./MIC 1)
[25] = linezolid 32 μg/ml (Conc./MIC 1/8)
[26] = linezolid 64 μg/ml (Conc./MIC 1/4)

CC[C@H](C)[C@H](NC(=O)[C@H](CCCCN)NC(=O)[C@H](Cc1c[nH]c2ccccc12)NC(=O)[C@@H](N)CCCNC(=N)N)C(=O)N[C@@H](Cc1ccccc1)C(=O)N[C@@H](CCCCN)C(=O)N[C@@H](CCCCN)C(=O)N[C@H](C(=O)N[C@H](CC(C)C)C(=O)N[C@@H](CCCCN)C(=O)N[C@@H](CC(C)C)C(=O)N[C@@H](CC(C)C)C(=O)N[C@@H](Cc1c[nH]cn1)C(=O)N[C@@H](CCC(=O)O)C(=O)N[C@@H](Cc1ccccc1)C(=O)N[C@@H](CCCCN)C(=O)N[C@@H](CCCCN)C(=O)N[C@@H](Cc1ccccc1)C(N)=O)[C@@H](C)CC [PapMA-23, RWK IFK KIl KLL HEF KKF-NH2] (H-RWKIFKKI[dL]KLLHEFKKF-NH2; N-terminus assumed)
Minimal inhibitory concentration MIC [1]: 32 µg/mL (≈ 13.3 µM) | Minimal inhibitory concentration MIC [2]: 32 µg/mL (≈ 13.3 µM) | Minimal inhibitory concentration MIC [3]: 32 µg/mL (≈ 13.3 µM) | Peptide MIC, peptide alone [3]: 32 µg/mL | Antibacterial activity relative to PapMA-1 [3]: at least twice as high | Minimal inhibitory concentration MIC [4]: 32 µg/mL (≈ 13.3 µM) | Peptide MIC, peptide alone [4]: 32 µg/mL | Peptide MIC during treatment with antibiotic [5, 11]: 4 µg/mL | Peptide MIC during treatment with antibiotic [5, 12]: 2 µg/mL | Peptide MIC during treatment with antibiotic ([5]; erythromycin […] (Conc./MIC 1)): 0 µg/mL | Peptide MIC during treatment with antibiotic [5, 13]: 1 µg/mL | Peptide MIC during treatment with antibiotic [5, 14]: 4 µg/mL | Peptide MIC during treatment with antibiotic [5, 15]: 0 µg/mL | Peptide MIC during treatment with antibiotic ([5]; linezolid […] (Conc./MIC 1/2)): 1 µg/mL | Peptide MIC during treatment with antibiotic ([5]; linezolid […] (Conc./MIC 1/4)): 2 µg/mL | Peptide MIC during treatment with antibiotic [5, 16]: 2 µg/mL | Peptide MIC during treatment with antibiotic [5, 17]: 1 µg/mL | Peptide MIC during treatment with antibiotic ([5]; vancomycin […] (Conc./MIC 1/4)): 4 µg/mL | Peptide MIC during treatment with antibiotic ([5]; vancomycin […] (Conc./MIC 1/8)): 8 µg/mL | Peptide MIC [6, 18]: 0 µg/mL | Peptide MIC [6, 19]: 0 µg/mL | Peptide MIC [6, 20]: 0 µg/mL | Minimal inhibitory concentration MIC [7]: 32 µg/mL (≈ 13.3 µM) | Antibacterial activity relative to PapMA-1 [8]: twice to four times higher | Peptide MIC during treatment with erythromycin [9, 21]: 8 µg/mL | Peptide MIC during treatment with erythromycin [9, 22]: 4 µg/mL | Peptide MIC during treatment with erythromycin [9, 23]: 4 µg/mL | Peptide MIC during treatment with erythromycin [9, 24]: 0 µg/mL | Peptide MIC during treatment with linezolid [9, 25]: 8 µg/mL | Peptide MIC during treatment with linezolid [9, 26]: 4 µg/mL | Peptide MIC during treatment with linezolid ([9]; linezolid […] (Conc./MIC 1)): 0 µg/mL | Peptide MIC during treatment with linezolid ([9]; linezolid […] (Conc./MIC 1/2)): 1 µg/mL | Peptide MIC during treatment with vancomycin [9, 16]: 0.25 µg/mL | Peptide MIC during treatment with vancomycin [9, 17]: 0 µg/mL | Peptide MIC during treatment with vancomycin ([9]; vancomycin […] (Conc./MIC 1/4)): 0.5 µg/mL | Peptide MIC during treatment with vancomycin ([9]; vancomycin […] (Conc./MIC 1/8)): 4 µg/mL | Peptide MIC during treatment with erythromycin [10, 21]: 8 µg/mL | Peptide MIC during treatment with erythromycin [10, 22]: 8 µg/mL | Peptide MIC during treatment with erythromycin [10, 23]: 4 µg/mL | Peptide MIC during treatment with erythromycin [10, 24]: 0 µg/mL | Peptide MIC during treatment with linezolid [10, 14]: 4 µg/mL | Peptide MIC during treatment with linezolid [10, 15]: 0 µg/mL | Peptide MIC during treatment with linezolid ([10]; linezolid […] (Conc./MIC 1/2)): 1 µg/mL | Peptide MIC during treatment with linezolid ([10]; linezolid […] (Conc./MIC 1/4)): 4 µg/mL | Peptide MIC during treatment with vancomycin [10, 16]: 2 µg/mL | Peptide MIC during treatment with vancomycin [10, 17]: 1 µg/mL | Peptide MIC during treatment with vancomycin ([10]; vancomycin […] (Conc./MIC 1/4)): 4 µg/mL | Peptide MIC during treatment with vancomycin ([10]; vancomycin […] (Conc./MIC 1/8)): 4 µg/mL

CC[C@H](C)[C@H](NC(=O)[C@H](CCCCN)NC(=O)[C@H](Cc1c[nH]c2ccccc12)NC(=O)[C@@H](N)CCCNC(=N)N)C(=O)N[C@@H](Cc1ccccc1)C(=O)N[C@@H](CCCCN)C(=O)N[C@@H](CCCCN)C(=O)N[C@H](C(=O)N[C@H](CC(C)C)C(=O)N[C@@H](CCCCN)C(=O)N[C@@H](CC(C)C)C(=O)N[C@@H](CC(C)C)C(=O)N[C@@H](Cc1c[nH]cn1)C(=O)N[C@@H](CCC(=O)O)C(=O)N[C@@H](C)C(=O)N[C@@H](CCCCN)C(=O)N[C@@H](CCCCN)C(=O)N[C@@H](Cc1c[nH]c2ccccc12)C(N)=O)[C@@H](C)CC [PapMA-24, RWK IFK KIl KLL HEA KKW-NH2] (H-RWKIFKKI[dL]KLLHEAKKW-NH2; N-terminus assumed)
Minimal inhibitory concentration MIC [1]: 32 µg/mL (≈ 13.5 µM) | Minimal inhibitory concentration MIC [2]: 32 µg/mL (≈ 13.5 µM) | Minimal inhibitory concentration MIC [3]: 16 µg/mL (≈ 6.77 µM) | Peptide MIC, peptide alone [3]: 16 µg/mL | Antibacterial activity relative to PapMA-1 [3]: at least twice as high | Minimal inhibitory concentration MIC [4]: 32 µg/mL (≈ 13.5 µM) | Peptide MIC, peptide alone [4]: 32 µg/mL | Peptide MIC during treatment with antibiotic [5, 11]: 4 µg/mL | Peptide MIC during treatment with antibiotic [5, 12]: 2 µg/mL | Peptide MIC during treatment with antibiotic ([5]; erythromycin […] (Conc./MIC 1)): 0 µg/mL | Peptide MIC during treatment with antibiotic [5, 13]: 1 µg/mL | Peptide MIC during treatment with antibiotic [5, 14]: 4 µg/mL | Peptide MIC during treatment with antibiotic [5, 15]: 0 µg/mL | Peptide MIC during treatment with antibiotic ([5]; linezolid […] (Conc./MIC 1/2)): 1 µg/mL | Peptide MIC during treatment with antibiotic ([5]; linezolid […] (Conc./MIC 1/4)): 2 µg/mL | Peptide MIC during treatment with antibiotic [5, 16]: 2 µg/mL | Peptide MIC during treatment with antibiotic [5, 17]: 1 µg/mL | Peptide MIC during treatment with antibiotic ([5]; vancomycin […] (Conc./MIC 1/4)): 4 µg/mL | Peptide MIC during treatment with antibiotic ([5]; vancomycin […] (Conc./MIC 1/8)): 8 µg/mL | Peptide MIC [6, 18]: 0 µg/mL | Peptide MIC [6, 19]: 0 µg/mL | Peptide MIC [6, 20]: 0 µg/mL | Minimal inhibitory concentration MIC [7]: 32 µg/mL (≈ 13.5 µM) | Antibacterial activity relative to PapMA-1 [8]: twice to four times higher | Peptide MIC during treatment with erythromycin [9, 21]: 8 µg/mL | Peptide MIC during treatment with erythromycin [9, 22]: 4 µg/mL | Peptide MIC during treatment with erythromycin [9, 23]: 4 µg/mL | Peptide MIC during treatment with erythromycin [9, 24]: 0 µg/mL | Peptide MIC during treatment with linezolid [9, 25]: 8 µg/mL | Peptide MIC during treatment with linezolid [9, 26]: 4 µg/mL | Peptide MIC during treatment with linezolid ([9]; linezolid […] (Conc./MIC 1)): 0 µg/mL | Peptide MIC during treatment with linezolid ([9]; linezolid […] (Conc./MIC 1/2)): 1 µg/mL | Peptide MIC during treatment with vancomycin [9, 16]: 0.25 µg/mL | Peptide MIC during treatment with vancomycin [9, 17]: 0 µg/mL | Peptide MIC during treatment with vancomycin ([9]; vancomycin […] (Conc./MIC 1/4)): 0.5 µg/mL | Peptide MIC during treatment with vancomycin ([9]; vancomycin […] (Conc./MIC 1/8)): 2 µg/mL | Peptide MIC during treatment with erythromycin [10, 21]: 8 µg/mL | Peptide MIC during treatment with erythromycin [10, 22]: 8 µg/mL | Peptide MIC during treatment with erythromycin [10, 23]: 4 µg/mL | Peptide MIC during treatment with erythromycin [10, 24]: 0 µg/mL | Peptide MIC during treatment with linezolid [10, 14]: 4 µg/mL | Peptide MIC during treatment with linezolid [10, 15]: 0 µg/mL | Peptide MIC during treatment with linezolid ([10]; linezolid […] (Conc./MIC 1/2)): 1 µg/mL | Peptide MIC during treatment with linezolid ([10]; linezolid […] (Conc./MIC 1/4)): 4 µg/mL | Peptide MIC during treatment with vancomycin [10, 16]: 2 µg/mL | Peptide MIC during treatment with vancomycin [10, 17]: 1 µg/mL | Peptide MIC during treatment with vancomycin ([10]; vancomycin […] (Conc./MIC 1/4)): 4 µg/mL | Peptide MIC during treatment with vancomycin ([10]; vancomycin […] (Conc./MIC 1/8)): 4 µg/mL
